Square brackets hold non-standard residues; d marks the D form. Ends that are not written are not given here. Peptide text beside a SMILES is read from it. * marks the point of attachment. NBD = O=[N+]([O-])c1ccc(*)c2nonc12; βAla = NCCC(=O)O

Data set [1] deals with T1, recombinant human MasR (rhMasR) (Homo sapiens, UniProt P04201).
T1 construct: purchased Abnova H00004142-G01
T1 sequence (P04201 1-325): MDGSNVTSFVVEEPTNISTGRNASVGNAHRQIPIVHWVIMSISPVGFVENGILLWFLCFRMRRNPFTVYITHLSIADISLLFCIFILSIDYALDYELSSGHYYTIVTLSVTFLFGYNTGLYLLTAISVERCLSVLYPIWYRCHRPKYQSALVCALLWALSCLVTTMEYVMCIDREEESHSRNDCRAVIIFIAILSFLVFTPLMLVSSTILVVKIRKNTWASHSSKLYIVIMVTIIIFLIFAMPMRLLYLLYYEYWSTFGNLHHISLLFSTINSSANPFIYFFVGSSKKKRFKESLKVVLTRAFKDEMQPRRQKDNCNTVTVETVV
The data set is described as follows: Surface plasmon resonance imaging (SPRi) binding. The following applies: rhMasR immobilized on CM5 chip, analytes 0.001-10 μM in PBS. Background: Surface plasmon resonance follows binding to a sensor surface in real time, without labels.

A short description of data set [2]: TEM of nanofibers (diameter). The class given is physicochemical. The following applies: SAA1-7 hydrogel, 1.0 wt% in PBS pH 7.4, heat-cooling. From the text: To construct the dual-ligand supramolecular nanofibers, we designed and synthesized a peptide molecule NBD-^DF^DF^DY^DE^DEG-DRVYIHP (SAA1-7, Figure 1A & Figure S1) as a hydrogelator. […] SAA1-7 could self-assemble into a transparent hydrogel in PBS (pH 7.4) at a concentration of 1.0 wt% via a simple heat-cooling process, in which we observed uniform nanofibers with diameters of 7.6 ± 1.8 nm using transmission electron microscopy (TEM) (Figure S2). The drug loading efficiency and the stability of nanocarriers are attributed to the affinity between amphiphilic peptides and hydrophobic molecules. […] We measured the encapsulation efficiency (EE) and drug loading (DL) of TDCNfs. […]
Subsequently, we studied the co-assembly behaviors and the underlying mechanism of TDCNfs. […] We monitored and compared the nanostructures in the process of hydrogelation at different time points by TEM. […]
(§1) DL and EE were calculated using the following equation. […]
dissolved in PBS (5 mL) and th e pH was adjusted to 7.4. […] Next, 500 μL of the sample was removed at each time point and the rel ease of Tel was analyzed, while the remained SAA1-7 in the sample was analyzed using LC-MS […]
(§2) The CMC values were determined by dynamic light scattering (DLS) and the light scattering intensity was recorded for each concentration. […]

Data set [3] can be described thus: Critical micelle concentration by dynamic light scattering. The following applies: gradient concentrations in MilliQ water. The class given is physicochemical. The procedure: The details are given in Supporting Information.
S1.3 Drug Loading and Encapsulation Efficiency
Tel (dissolved in DMSO) was mixed with SAA1-7 (dissolved in PBS) (pH 7.4, 10 mg/mL) at molar ratios of 15%, 30%, 50%, and 70% (n = 3). After preparation, the mixtures were analy zed using LC-MS (LCMS-20AD, Shimadzu) after lyo philization.
as §1
dissolved in PBS (5 mL) and th e pH was adjusted to 7.4. Proteinase K was added at a concentration of 0.138 mg/mL and the reaction m ixtures were incubated at 37 °C for 24 h. Next, 500 μL of the sample was removed at each time point and the rel ease of Tel was analyzed, while the remained SAA1-7 in the sample was analyzed using LC-MS […]
S1.4 Transmission electron microscopy
The SAA1-7 with 50% molar ratio of Tel was incubated at 40 ℃ for 0 min, 30 min, 60 min, and 120 min, respectively. TEM samples in different time points were prepared. […]
were prepared. The sample preparation procedures : 10 µL samples of each were placed on a carbon-coated copper grid and in cubated for 30 seconds to allow the peptide nanostructures to adhere to the substrate, then rinsed twice with ultrapure water. […]
as §2

In the next data set the target is T2, AT1R (Rattus norvegicus, UniProt P25095).
T2 construct: NRCMs under OGD conditions expressed high levels of AT1R (red fluorescence); endogenous in cells; host or cells: primary neonatal rat cardiomyocytes (NRCMs) from Sprague-Dawley rats, normoxia or OGD
T2 sequence (P25095 1-359): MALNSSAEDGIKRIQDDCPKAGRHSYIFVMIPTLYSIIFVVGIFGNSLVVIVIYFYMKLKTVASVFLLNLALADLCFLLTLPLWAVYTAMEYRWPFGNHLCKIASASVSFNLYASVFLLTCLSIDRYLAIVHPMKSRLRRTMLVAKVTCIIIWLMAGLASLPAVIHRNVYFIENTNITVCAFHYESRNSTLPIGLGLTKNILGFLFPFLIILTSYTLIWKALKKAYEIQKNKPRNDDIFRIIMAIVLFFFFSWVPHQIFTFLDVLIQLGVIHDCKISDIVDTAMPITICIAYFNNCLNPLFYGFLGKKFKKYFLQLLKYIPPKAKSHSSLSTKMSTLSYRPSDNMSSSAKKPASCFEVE
Kind of data set: Fluorescent co-localization with AT1R in NRCMs. The class given is cell-based. To be noted: OGD-conditioned NRCMs, 50 μM, 2 h, microscopy.

The next data set deals with NRCMs. The data set is described as follows: TUNEL staining of OGD NRCMs. The format is cell-based, rat. To be noted: 10 μM, 2-3 h, OGD group 26.70%, n = 3.
For data set [4], the system named is MI mouse model. Kind of data set: In vivo mechanism: caspase-3 IHC, α-SMA immunofluorescence, type I collagen, TGF-β1, serum cytokines. The following applies: MI mice, 4 weeks post-treatment, immunofluorescence, n = 5. Details: species or system C57BL/6 mice. The procedure: Frozen sections were prepared in vivo, as described previously. For drugs distribution, near-infrared laser imager (GE Amersham Typhoon, Sweden) was used to capture full cross section of hearts. For co-localization experiments, the mice hearts were dissected 24 h post-injection of drugs. Anti-AT1R primary antibody (1:200 dilution) was used as the primary antibody. For fibrosis investigation, the frozen sections were incubated with primary antibodies against α-SMA (1:400 dilution). The staining signals were visualized using FITC-labeled Goat Anti-Rabbit IgG (1:200 dilution) or Cy3-labeled Goat Anti-Rabbit IgG (1:200 dilution). The sections were counterstained with DAPI and examined under a laser confocal scanning microscope (Leica TCS SP8, Germany).
The heart tissues were fixed in 4% paraformaldehyde, dehydrated in ethanol, cleared in xylene, and embedded in paraffin. The samples were then cut into 6 μm sections on a microtome and deparaffinized. The sections were blocked by incubating with 1% BSA at room temperature for 30 min and then incubated overnight with anti-cleaved caspase-3 (1:700 dilution), anti-AT1R (1:100 dilution), anti-Collagen I (1:200 dilution) at 4 °C. Next, the sections were washed and incubated with secondary antibodies (1:500 dilution) at room temperature. The tissue sections were incubated with diaminobenzidine and counterstained with hematoxylin, dehydrated, and mounted before viewing under a microscope.
The serum and CM were collected at the indicated time points from the different groups of mice. The levels of TNF-α, IL-6, ALT, Cre, and TGF-β1 were measured using ELISA kits according to the manufacturer's protocol. The absorbance was measured at 450 nm using a microplate reader.

For data set [5], the system named is MI mouse model. The data set is described as follows: Masson's trichrome staining, infarct size. To be noted: MI mice, 4 weeks, collagen area/LV area, MI group 36.60%, vehicle 1219.84 μg/kg, n = 5. The format is in vivo, C57BL/6 mice. As to the method: Adult male C57BL/6 mice (20-30 g, 8-10 week) were purchased from the laboratory animal center of Southern Medical University, China. The protocols were approved according to the Zhujiang Hospital of Southern Medical University animal care and use committee guidelines, which conform to the guide for the care and use of laboratory animals published by the US National Institutes of Health (8th edition, 2011). […] Next, 100 µL of different drugs were administered intravenously through tail vein injection every 2 days for 3 weeks, while the mice in the Sham and MI groups were treated with an equal volume of PBS.
The mice were sacrificed at 4 weeks after the induction of MI, and hearts and major organs were harvested and fixed in 4% paraformaldehyde overnight and embedded in paraffin. The hearts were sectioned to 5 µm along the short axis transversely across the infarct zone. The major organs were sectioned to 5 µm along the short axis. Following deparaffinization and dehydration, the samples underwent H&E and Masson's trichrome staining. The sections were observed under a microscope to evaluate the therapeutic effect and safety of the drugs. The collagen and LV areas were measured using the Image-Pro Plus software (version 6.0; Media Cybernetics, Silver Spring, MD, USA). Infarct size (%) was calculated as the ratio of the collagen area to the LV area.

The target in data set [6] is T3, recombinant human MasR (Recombinant Human MAS1 protein) (human) (UniProt P04201).
T3 sequence (P04201 whole entry, looked up): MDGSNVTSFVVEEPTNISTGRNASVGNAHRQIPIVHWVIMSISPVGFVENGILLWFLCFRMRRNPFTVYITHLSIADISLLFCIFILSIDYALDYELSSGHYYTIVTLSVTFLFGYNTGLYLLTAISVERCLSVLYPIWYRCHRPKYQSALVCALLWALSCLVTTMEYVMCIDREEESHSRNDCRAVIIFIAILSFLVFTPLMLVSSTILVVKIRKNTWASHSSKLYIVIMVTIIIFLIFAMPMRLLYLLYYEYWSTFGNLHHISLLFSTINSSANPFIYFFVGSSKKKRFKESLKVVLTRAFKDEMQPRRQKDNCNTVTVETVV
The data set is described as follows: SPR; SPR imaging (SPRi, PlexArray HT); rhMasR immobilised on a CM5 sensor chip; Ang1-7, SAA1-7 and TDCNfs diluted in PBS at 0.001 to 10 μM.

Procedure for AT1R: Next, the cells were blocked by incubating with goat serum for 30 min and incubated with primary antibodies overnight at 4 °C. The primary antibodies used here included anti-AT1R (1:200 dilution), anti-cTNT (1:500 dilution), anti-P65 (1:800 dilution), and anti‐α-SMA (1:400 dilution). The cells were incubated with FITC-labeled Goat Anti-Rabbit IgG (1:200 dilution) or Cy3-labeled Goat Anti-Mouse IgG (1:200 dilution) for 2 h at room temperature. The cells were counterstained with DAPI and imaged using a fluorescence microscope (Leica Dmi8, Germany).
(50 μM), SAA1-7+Tel (50 μM) and NBDAng1-7+Tel (50 μM) for further 2 h. PBS was then used to wash cells for three times and 4% paraformaldehyde was added to fix cells for 20 min at room temperature. After being blocked with goat serum for 30 min, rabbit anti-AT1R primary antibody (1:200 dilution) was added to incubat e wit h NRCMs overnight at 4 ℃. After being washed with PBS for three times, Cy3-labeled Goat Anti-Rabbit IgG (1:200 solut ion) was added and incubated with cells for 2 h at room temperature. Cells were then stained with DAPI. The fluorescence i mages were obtained by the fluorescence microscope (λexc =532 nm for AT1R, λexc = 488 nm for NBD, λexc = 405 nm for DAPI).

One may read the Kd as a measure of binding affinity in units of concentration. As to `CC[C@H](C)[C@H](NC(=O)[C@H](Cc1ccc(O)cc1)NC(=O)[C@@H](NC(=O)[C@H](CCCNC(=N)N)NC(=O)[C@@H](N)CC(=O)O)C(C)C)C(=O)N[C@@H](Cc1c[nH]cn1)C(=O)N1CCC[C@H]1C(=O)O` [Ang1-7, DRVYIHP], the Kd in data set [1] came out at 10.3 nM.

In the case of `CC[C@H](C)[C@H](NC(=O)[C@H](Cc1ccc(O)cc1)NC(=O)[C@@H](NC(=O)[C@H](CCCNC(=N)N)NC(=O)[C@H](CC(=O)O)NC(=O)CNC(=O)[C@@H](CCC(=O)O)NC(=O)[C@@H](CCC(=O)O)NC(=O)[C@@H](Cc1ccc(O)cc1)NC(=O)[C@@H](Cc1ccccc1)NC(=O)[C@@H](Cc1ccccc1)NC(=O)CCNc1ccc([N+](=O)[O-])c2nonc12)C(C)C)C(=O)N[C@@H](Cc1c[nH]cn1)C(=O)N1CCC[C@H]1C(=O)O` [SAA1-7, NBD-^DF^DF^DY^DE^DEG-DRVYIHP] ({NBD-βAla}-[dF][dF][dY][dE][dE]GDRVYIHP-OH), the Kd in data set [1] stood at 12.6 nM. The “nanofiber diameter (TEM)” value in data set [2] was determined as 7.6 ± 1.8 nm. Also, the “critical micelle concentration (CMC)” value in data set [3] stood at 21.95 µM. Besides, the “co-localization with AT1R” value on AT1R is on record as “slightly overlapped signal”.

Turning to NBD-DFDFDYDEDEG-YRVIPHD [vehicle], the “TUNEL-positive NRCMs” value in the data set with NRCMs is given as 23.5%. Also, the “α-SMA expression in the non-infarcted area” value with MI mouse model [4] is “inhibited to a certain extent”. The molecule further registered an infarct size in the data set on MI mouse model [5] of 32.92%.

As to “NBDAng1-7: Ang1-7 endowed with fluorescence by NBD labeling”, the “co-localization with AT1R” value with AT1R was “slightly overlapped signal”.

B1: telmisartan-doped co-assembly nanofibers (peptide)
peptide: {NBD}-[dF][dF][dY][dE][dE]GDRVYIHP
modifications: also: co-assembly nanofibers doped with telmisartan
Turning to B1, in data set [6], the Kd is 16.5 nM and the binding value (RU) turned out to be 58.2 RU.

B2: angiotensin 1-7 (peptide)
peptide: DRVYIHP
In the case of B2, in data set [6], the Kd stood at 10.3 nM and the binding value (RU) stood at 65.1 RU.

B3: self-assembly angiotensin 1-7 (NBD-DF-DF-DY-DE-DE-G-DRVYIHP) (peptide)
peptide: {NBD}-[dF][dF][dY][dE][dE]GDRVYIHP
As to B3, in data set [6], the Kd is 12.6 nM and the binding value (RU) was 62.3 RU.
